Values of other authors, collected in article PMC3473115 (Accounts of chemical research, 2012).

Test system: HIV-1 gp41
Details: read-out: CCF IC50; cell-cell fusion assay

Which IC50 does the source give for H2N-Trp-[Trp]-Leu-OH [compound 5] here?
The IC50 was 5 µM.
